The source of these data is PMC11013010, “Serendipitous Identification of Azine Anticancer Agents Using a Privileged Scaffold Morphing Strategy” (Molecules, 2024).

For orientation: CC50 means the concentration at which the toxic effect on the cells reaches its halfway point.

Data set [1] in a line: Cytotoxicity assay (CellTiter Glo) on normal fibroblasts. Type of data set: cell-based, human. To be noted: human, FB789 normal fibroblast cells. Here is the method:
(§1) Cell-based assays were carried out on the normal human fibroblast FB789 cell line (kindly provided by Elena Dell’Ambra from IRCCS Istituto Dermopatico dell’Immacolata, Rome), on the Huh7 hepatocarcinoma cell line (kindly provided by Istituto Toscano Tumori, Core Research Laboratory, Siena, Italy), on the Caco-2 adenocarcinoma colorectal cell line (ATCC catalog. n. HTB-37), on the suspension H9 cell line (repository code ARP0001, NIBSC Centre for AIDS reagents) and on the adherent TZM-bl cell line (repository code ARP5011, NIBSC Centre for AIDS reagents).
The FB789 was cultured in Dulbecco’s Modified Eagle Medium (DMEM) and Ham’s F10 in a ratio of 50%, supplemented with 10% FBS, 2 mM L-glutamine, and 10,000 unit/mL penicillin/streptomycin.
(§2) The cytotoxicity of all investigated compounds was assayed in all cells lines as previously described. Briefly, confluent cells were treated with decreasing compound concentrations for 48h. The final DMSO concentration used was never greater than 0.5% v/v. Each experiment was performed in duplicate and repeated in two independent experiments. Cell viability was calculated using the CellTiter Glo 2.0 kit (Promega, Madison, WI, USA) and luminescence values signal obtained from cells treated with serial dilution of the compounds were measured through the GloMax® Discover Multi mode Microplate Reader (Promega) and elaborated with GraphPad PRISM software version 9.0 (La Jolla, San Diego, CA, USA). […] A non-toxic dose of each compound was used as the starting concentration in the antiviral activity assay.
In general terms: Cellular ATP, detected with luciferase, serves as a proxy for viable cell number.

Data set [2] in a line: Cytotoxicity assay (CellTiter Glo) on hepatocarcinoma cells. The conditions noted are these: human, Huh7 hepatocarcinoma cells, Huh7 hepatocarcinoma. Type of data set: cell-based. Here is the method: as §1
(§3) High glucose Dulbecco’s Modified Eagle Medium with sodium pyruvate and L-glutamine (DMEM; Euroclone) was used to grow Huh-7 and TZM-bl. Minimum Essential Eagle Medium (EMEM; Euroclone) was used to propagate Caco-2. DMEM and EMEM were supplemented with 10% fetal bovine serum (FBS; Euroclone) and 1% penicillin/streptomycin (Pen/Strep, Euroclone). The growth medium with a lower concentration of FBS (1%) was used for viral propagation, cytotoxic and antiviral experiments in adherent cell lines. […] All cell lines were grown at 37 °C in a 5% CO2 atmosphere in a humidified incubator.
as §2

Data set [3] has as its system Huh7 cells. The data set is described as above. It is filed as cell-based. The conditions noted are these: ratio CC50 FB789 / CC50 Huh7. As to the method: as §1, §3, §2
Data set [4] is described as follows: Cytotoxicity assay (CellTiter Glo) on lymphoma cells. To be noted: human.
In data set [5] the test system is H9 cells. Described as above. To be noted: ratio CC50 FB789 / CC50 H9.
A short description of data set [6]: Cytotoxicity assay (CellTiter Glo) on colon epithelial carcinoma cells. The conditions noted are these: human, Caco-2.
In data set [7] the test system is Caco-2 cells. The data set is described as above. To be noted: ratio CC50 FB789 / CC50 Caco-2.
Where [8] appears, read: triazines 1-9, read-out 48 h, Cell-Titer Glo.
[9] abbreviates: pyrimidines and pyridines, read out at 48 h, mean ± SD.

On to `CC(=O)Nc1ccc(/C=N/Nc2nc(N3CCOCC3)nc(N3CCOCC3)n2)cc1` [Compound 2], for which the cytotoxic concentration (CC50) at 48 h in data set [1] (setting [8]) was 134 ± 11 µM; in data set [2] (triazines 1-9, read-out 48 h), above 200 µM; in data set [4] it was above 100 µM; in data set [6] it was above 200 µM. For the same compound, the “TSI Huh7” value in data set [3] (triazines 1-9) is on record as below 0.7. Moreover, the “TSI H9” value in data set [5] (triazines 1-9) is recorded as below 1.3. Moreover, the “TSI Caco-2” value in data set [7] (triazines 1-9) is reported as below 0.7.
Consider `Cc1cccc(/C=N/Nc2nc(N3CCOCC3)nc(N3CCOCC3)n2)c1` [Compound 3], for which the CC50 at 48 h in data set [1] (setting [8]) worked out at 250 ± 10 µM; in data set [2] (triazines 1-9, read-out 48 h), 45 ± 10 µM; in data set [4], 74 ± 6.2 µM; in data set [6], 184 ± 11 µM. Besides, the “TSI Huh7” value in data set [3] (triazines 1-9) worked out at 5.6. Further, the “TSI H9” value in data set [5] (triazines 1-9) came out at 3.4. For the same compound, in data set [7] (triazines 1-9), the “TSI Caco-2” value worked out at 1.4.
`CC(=O)Nc1ccc(/C=N/Nc2nc(Nc3ccc(F)cc3)nc(N3CCOCC3)n2)cc1` [Compound 5]: the half-maximal cytotoxic concentration (CC50) at 48 h stood at 27 ± 3 µM in data set [1] (setting [8]); 45 ± 6 µM in data set [2] (triazines 1-9, read-out 48 h); 30 ± 5 µM in data set [4]; 70 ± 6 µM in data set [6]. The “TSI Huh7” value in data set [3] (triazines 1-9) is 0.6. The “TSI H9” value in data set [5] (triazines 1-9) was found to be 0.9. Moreover, in data set [7] (triazines 1-9), the “TSI Caco-2” value is 0.4.
On to `Cc1cccc(/C=N/Nc2nc(Nc3ccc(F)cc3)nc(N3CCOCC3)n2)c1` [Compound 6], for which the CC50 at 48 h was 100 ± 8 µM in data set [1] (setting [8]); 47 ± 5 µM in data set [2] (triazines 1-9, read-out 48 h); above 100 µM in data set [4]; 22 ± 2 µM in data set [6]. In data set [3] (triazines 1-9), the “TSI Huh7” value was found to be 2.1. Also, the “TSI H9” value in data set [5] (triazines 1-9) is below 1.0. Moreover, in data set [7] (triazines 1-9), the “TSI Caco-2” value was 4.5.
Turning to `Oc1ccccc1/C=N/Nc1nc(Nc2ccc(F)cc2)nc(Nc2ccc(F)cc2)n1` [Compound 7], the half-maximal cytotoxic concentration (CC50) at 48 h was found to be 7 ± 2 µM in data set [1] (setting [8]); 2 ± 0.4 µM in data set [2] (triazines 1-9, read-out 48 h); 2 ± 1 µM in data set [4]; 0.8 ± 0.1 µM in data set [6]. Besides, in data set [3] (triazines 1-9), the “TSI Huh7” value was determined as 3.5. Further, the “TSI H9” value in data set [5] (triazines 1-9) was found to be 3.5. Further, the “TSI Caco-2” value in data set [7] (triazines 1-9) is recorded as 8.8.
For the compound `CC(=O)Nc1ccc(/C=N/Nc2nc(Nc3ccc(F)cc3)nc(Nc3ccc(F)cc3)n2)cc1` [Compound 8], the CC50 at 48 h in data set [1] (setting [8]) was 57 ± 7 µM; in data set [2] (triazines 1-9, read-out 48 h) it was above 200 µM; in data set [4], above 100 µM; in data set [6], above 200 µM. Moreover, in data set [3] (triazines 1-9), the “TSI Huh7” value is below 0.3. In addition, the “TSI H9” value in data set [5] (triazines 1-9) is recorded as below 0.6. Besides, in data set [7] (triazines 1-9), the “TSI Caco-2” value is listed as below 0.3.
As for `Cc1cccc(/C=N/Nc2nc(Nc3ccc(F)cc3)nc(Nc3ccc(F)cc3)n2)c1` [Compound 9], the CC50 at 48 h in data set [1] (setting [8]) is 50 ± 5 µM; in data set [2] (triazines 1-9, read-out 48 h), above 200 µM; in data set [4], above 100 µM; in data set [6], 200 µM.
For the compound `Oc1ccccc1/C=N/Nc1cc(N2CCOCC2)nc(N2CCOCC2)n1` [Compound 14a], the CC50 at 48 h is 30 ± 6 µM in data set [1] (setting [9]), 82 ± 6 µM in data set [2] (setting [9]), above 100 µM in data set [4] and 84 ± 7 µM in data set [6].
For the compound `Cc1cccc(/C=N/Nc2cc(N3CCOCC3)nc(N3CCOCC3)n2)c1` [Compound 14b], the CC50 at 48 h turned out to be 9 ± 1 µM in data set [1] (setting [9]), 8 ± 4 µM in data set [2] (setting [9]), 14 ± 7 µM in data set [4] and 11 ± 2 µM in data set [6]. The “TSI Caco-2” value in data set [7] (pyrimidines and pyridines) was 0.8.
On to `Cc1cccc(/C=N/Nc2cc(Nc3ccc(F)cc3)nc(N3CCOCC3)n2)c1` [Compound 21b], for which the CC50 at 48 h in data set [1] (setting [9]) was 95 ± 1 µM; in data set [2] (setting [9]) it was 67 ± 23 µM; in data set [4], above 100 µM; in data set [6] it was 113 ± 4 µM. Moreover, the “TSI H9” value in data set [5] (pyrimidines and pyridines) is listed as below 1.0. For the same compound, the “TSI Caco-2” value in data set [7] (pyrimidines and pyridines) amounted to 0.8.
Regarding `Oc1ccccc1/C=N/Nc1cc(N2CCOCC2)nc(N2CCOCC2)c1` [Compound 27a], the half-maximal cytotoxic concentration (CC50) at 48 h in data set [1] (setting [9]) turned out to be 11 ± 3 µM; in data set [2] (setting [9]), 44 ± 5 µM; in data set [4], 76 ± 4 µM; in data set [6], 29 ± 2 µM.
Regarding `Cc1cccc(/C=N/Nc2cc(N3CCOCC3)nc(N3CCOCC3)c2)c1` [Compound 27b], the CC50 at 48 h was 81 ± 2 µM in data set [1] (setting [9]), 39 ± 3 µM in data set [2] (setting [9]), 50 ± 4 µM in data set [4] and 30 ± 2 µM in data set [6]. Moreover, in data set [7] (pyrimidines and pyridines), the “TSI Caco-2” value amounted to 2.7.
On to `Oc1ccccc1/C=N/Nc1cc(Nc2ccc(F)cc2)nc(Nc2ccc(F)cc2)c1` [Compound 33a], for which the half-maximal cytotoxic concentration (CC50) at 48 h in data set [1] (setting [9]) was found to be 0.3 ± 0.3 µM; in data set [2] (setting [9]), 18 ± 5 µM; in data set [4], 43 ± 9 µM; in data set [6], 12 ± 4 µM. In addition, in data set [3] (pyrimidines and pyridines), the “TSI Huh7” value amounted to 0.02. For the same compound, the “TSI H9” value in data set [5] (pyrimidines and pyridines) is reported as 0.01. In addition, in data set [7] (pyrimidines and pyridines), the “TSI Caco-2” value is on record as 0.03.
`Oc1ccccc1/C=N/Nc1cc(Nc2ccc(F)cc2)nc(N2CCOCC2)c1` [Compound 38a]: the CC50 at 48 h is 3 ± 1 µM in data set [1] (setting [9]), 24 ± 14 µM in data set [2] (setting [9]), 37 ± 2 µM in data set [4] and 19 ± 0.1 µM in data set [6]. Also, the “TSI Huh7” value in data set [3] (pyrimidines and pyridines) is 0.1. Besides, the “TSI H9” value in data set [5] (pyrimidines and pyridines) was found to be 0.1. Also, the “TSI Caco-2” value in data set [7] (pyrimidines and pyridines) is on record as 0.2.
